Test results published in paper PMC6128854 (Scientific Reports, 2018).
Positions of bridges follow the written chain, without caps; N, C: chain ends. Non-standard residues stand in square brackets, D forms with d. Residues, ends and D or L forms follow the SMILES beside them. Hyp = O=C(O)[C@@H]1C[C@@H](O)CN1

Target: hCav2.2 (Homo sapiens, UniProt Q00975)
Experiment: cell-based
Settings: SEM

Chain of hCav2.2 (Q00975 whole entry, looked up): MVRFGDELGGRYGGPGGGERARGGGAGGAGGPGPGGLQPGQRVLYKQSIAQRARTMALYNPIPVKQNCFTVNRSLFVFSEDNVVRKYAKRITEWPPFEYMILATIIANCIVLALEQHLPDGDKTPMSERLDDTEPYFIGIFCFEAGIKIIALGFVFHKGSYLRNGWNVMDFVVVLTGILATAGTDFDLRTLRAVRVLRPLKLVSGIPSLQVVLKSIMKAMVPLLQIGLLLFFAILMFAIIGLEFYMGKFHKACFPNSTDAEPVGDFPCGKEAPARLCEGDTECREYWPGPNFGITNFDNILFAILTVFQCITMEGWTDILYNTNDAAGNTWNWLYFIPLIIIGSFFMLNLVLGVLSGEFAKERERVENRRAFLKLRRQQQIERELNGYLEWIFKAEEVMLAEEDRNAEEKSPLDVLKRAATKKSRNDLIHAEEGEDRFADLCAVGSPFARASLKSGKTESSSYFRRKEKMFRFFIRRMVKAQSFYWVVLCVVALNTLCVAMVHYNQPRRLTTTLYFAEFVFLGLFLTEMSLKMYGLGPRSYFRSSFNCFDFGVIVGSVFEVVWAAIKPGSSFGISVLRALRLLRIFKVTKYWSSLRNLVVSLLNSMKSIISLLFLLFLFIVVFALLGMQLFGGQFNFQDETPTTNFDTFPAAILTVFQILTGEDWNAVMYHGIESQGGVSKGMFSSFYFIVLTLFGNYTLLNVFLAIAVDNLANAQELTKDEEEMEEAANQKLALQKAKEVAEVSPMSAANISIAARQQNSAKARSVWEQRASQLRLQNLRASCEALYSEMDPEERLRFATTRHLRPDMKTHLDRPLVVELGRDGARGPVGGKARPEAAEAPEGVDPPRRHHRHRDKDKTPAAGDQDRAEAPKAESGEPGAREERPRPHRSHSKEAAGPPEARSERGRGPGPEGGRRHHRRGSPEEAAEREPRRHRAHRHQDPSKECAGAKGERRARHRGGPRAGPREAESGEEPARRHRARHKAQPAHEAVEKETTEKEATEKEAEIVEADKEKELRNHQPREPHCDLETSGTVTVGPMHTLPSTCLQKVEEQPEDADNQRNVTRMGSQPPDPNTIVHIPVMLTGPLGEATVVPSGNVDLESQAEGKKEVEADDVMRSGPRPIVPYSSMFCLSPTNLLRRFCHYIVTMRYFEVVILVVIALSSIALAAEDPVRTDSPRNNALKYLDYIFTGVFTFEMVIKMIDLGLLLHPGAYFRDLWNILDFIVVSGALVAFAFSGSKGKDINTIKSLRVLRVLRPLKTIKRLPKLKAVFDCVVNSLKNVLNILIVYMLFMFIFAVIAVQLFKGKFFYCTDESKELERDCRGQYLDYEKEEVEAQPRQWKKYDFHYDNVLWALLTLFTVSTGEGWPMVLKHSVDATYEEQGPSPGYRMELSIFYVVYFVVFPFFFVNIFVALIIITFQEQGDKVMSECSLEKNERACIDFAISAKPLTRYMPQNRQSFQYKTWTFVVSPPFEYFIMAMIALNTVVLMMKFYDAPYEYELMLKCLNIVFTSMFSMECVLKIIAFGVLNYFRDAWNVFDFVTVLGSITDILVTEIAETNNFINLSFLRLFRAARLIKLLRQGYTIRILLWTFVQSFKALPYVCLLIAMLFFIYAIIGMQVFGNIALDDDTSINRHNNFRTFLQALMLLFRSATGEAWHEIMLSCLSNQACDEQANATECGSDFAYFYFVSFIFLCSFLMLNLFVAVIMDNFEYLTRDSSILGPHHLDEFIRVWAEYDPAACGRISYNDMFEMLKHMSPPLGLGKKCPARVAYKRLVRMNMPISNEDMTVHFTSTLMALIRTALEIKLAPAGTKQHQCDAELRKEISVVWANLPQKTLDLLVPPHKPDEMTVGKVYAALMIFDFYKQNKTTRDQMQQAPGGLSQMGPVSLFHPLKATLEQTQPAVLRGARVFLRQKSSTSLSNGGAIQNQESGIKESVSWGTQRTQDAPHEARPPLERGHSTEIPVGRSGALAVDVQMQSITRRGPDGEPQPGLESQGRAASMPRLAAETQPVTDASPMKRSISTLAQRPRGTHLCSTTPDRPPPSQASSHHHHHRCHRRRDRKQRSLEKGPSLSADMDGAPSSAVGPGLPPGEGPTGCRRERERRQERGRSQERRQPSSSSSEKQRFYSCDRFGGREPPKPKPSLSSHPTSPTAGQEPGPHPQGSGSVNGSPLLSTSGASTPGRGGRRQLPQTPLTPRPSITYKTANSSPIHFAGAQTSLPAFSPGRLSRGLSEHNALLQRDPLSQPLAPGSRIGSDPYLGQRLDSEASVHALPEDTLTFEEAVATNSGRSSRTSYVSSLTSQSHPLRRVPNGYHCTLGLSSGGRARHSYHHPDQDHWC

Structure (SMILES): CC[C@H](C)[C@@H]1NC(=O)[C@@H]2CSSC[C@@H]3NC(=O)[C@H](CCCCN)NC(=O)[C@H](CO)NC(=O)CNC(=O)[C@@H]4C[C@@H](O)CN4C(=O)[C@@H]4CCCN4C(=O)[C@H](CCCCN)NC(=O)[C@@H](N)CSSC[C@H](NC(=O)[C@H](CSSC[C@@H](C(=O)N[C@@H](CCCNC(=N)N)C(=O)N[C@@H](CCCCN)C(=O)N[C@@H](Cc4ccc(O)cc4)C(=O)N[C@@H](Cc4ccc(O)cc4)C(=O)O)NC(=O)[C@H](CCCNC(=N)N)NC(=O)[C@H](CCCCN)NC(=O)[C@H]([C@@H](C)O)NC(=O)[C@H](Cc4ccc(O)cc4)NC(=O)[C@H](CO)NC1=O)NC(=O)[C@H](CC(=O)O)NC(=O)[C@H](Cc1ccc(O)cc1)NC(=O)[C@H](CCSC)NC(=O)[C@H](CO)NC(=O)[C@@H]1C[C@@H](O)CN1C(=O)[C@H](CO)NC3=O)C(=O)N[C@@H]([C@@H](C)O)C(=O)N[C@@H]([C@@H](C)O)C(=O)N2 [MoVIB-[R13Y]] (H-CKP[Hyp]GSKCS[Hyp]SMYDCCTTCISYTKRCRKYY-OH; disulfide 1-16, 8-19, 15-26)
- IC50: 3.47 ± 0.55 µM
